Data published in a melting point compilation (Tetko et al.).

melting point | SMILES
190 °C | C/C=C/C(=O)NNc1ccccc1
222 °C | NC(CC(=O)O)c1ccccc1 (racemic)
233 to 235 °C | O=C(O)C=Cc1ccc(Sc2ccc(Cl)cc2)c([N+](=O)[O-])c1
323 to 325 °C | CC1CC(=O)c2c(F)c(F)cc3c(=O)c(C(=O)O)cn1c23 (stereo not drawn)
274 to 277 °C | Oc1cc(C(F)(F)F)nc2ccc(C(F)(F)F)cc12
75 to 77 °C | O=Cc1cc(Cl)ccc1[N+](=O)[O-]
219 °C | CCOC(=O)c1c(C)cc(O)nc1O
21 °C | O=S(=O)(Cl)c1cccc(Cl)c1
82.5 °C | O=C(C(=O)c1cccs1)c1cccs1
52 °C | COC(=O)c1ccccc1C(=O)c1ccccc1
41 °C | CCS(=O)(=O)c1ccc(F)cc1
45.5 °C | CCCCNCC(=O)Nc1c(C)cccc1Cl
47 to 48 °C | OCc1cccc2c1OCCCO2
182 °C | O=C(O)CS(=O)(=O)CC(=O)O
132 to 134 °C | O=C(O)Cc1ccc(O)c(F)c1
121 to 122 °C | COC(=O)/C(=C/c1ccc([N+](=O)[O-])cc1)c1ccccc1C(=O)OC
156 to 160 °C | CC(=O)Nc1cccc2ccccc12
54 °C | Cc1cc(Cl)cc(Cl)c1CN
42 to 44 °C | CC(=O)c1ccc(F)c(Cl)c1
58 to 62 °C | CC1=CP(=O)(c2ccccc2)CC1 (stereo not drawn)
40 °C | FC(F)(F)c1ccc(Br)cn1
65 to 67 °C | Cc1cc(Br)ccc1S(=O)(=O)Cl
14 °C | CSCC(=O)O

The next lines start with the molecule.

SMILES | melting point
N#CCCN1CCN(CCC#N)CC1 | 65 °C
CCOC(=O)c1c(C)[nH]c2cc3[nH]c(C)c(C(=O)OCC)c3cc12 | 342 °C
O=C1CCC/C1=C1\C(=O)Nc2ccccc21 | 267 °C
CC(=O)OCCOCCOCCOC(C)=O | -50 °C
Cc1cc(C)c(C(N)=O)c(N)n1 | 172 to 174 °C
CC(O)CO (stereo not drawn) | -60 °C
COC(=O)c1ccccc1-n1c(=S)[nH]c2ccccc2c1=O | 255 to 257 °C
Clc1ccc(NC2=NCCN2)cc1 | 147 to 148 °C
Cc1ccc(-c2ccc(/C=C3\C=C(CC(C)C)OC3=O)o2)cc1 | 78 °C
CC(C)(C)C(=O)OCC(=O)C1(O)CCC2C3CCC4=CC(=O)C=CC4(C)C3C(O)CC21C (stereo not drawn) | 233 °C
NNC(=S)NCCN1CCOCC1 | 166 °C
OCc1scc2c1OCCO2 | 68 to 69 °C
O=C(O)CSCC(=O)O | 129 °C
O=[N+]([O-])c1ccccc1-c1onc(-c2ccccc2)c1-c1ccccc1 | 127 °C
CN(C)CCCN1c2ccccc2Sc2ccccc21 | 33 °C
CN(C)c1ccc(C(O)C2C(=O)N(c3ccccc3)N=C2C(F)(F)F)cc1 (stereo not drawn) | 171 °C
FC(F)(F)C(F)(F)C(F)(F)C(F)(F)N(C(F)(F)C(F)(F)C(F)(F)C(F)(F)F)C(F)(F)C(F)(F)C(F)(F)C(F)(F)F | -50 °C
NC(=O)C1=CNCCC1C(F)(F)F (stereo not drawn) | 184 to 187 °C
COc1c(CC(O)C(C)C)c(=O)n(C)c2c(OC)cccc12 (stereo not drawn) | 86.5 °C
OC1(c2ccccc2)c2ccccc2Oc2ccccc21 | 158 to 162 °C
OC1OCCCC1(Cl)Cl (stereo not drawn) | 87 to 90 °C
c1cnc2cccnc2c1 | 75 °C
Cc1ccc(NN=C2SC(=N)NC2=O)cc1 | 265 °C
C=C(C)C(=O)OCCCC | -75 °C
N#CC(O)C(Cl)(Cl)Cl (stereo not drawn) | 61 °C
OCCNC(CO)(CO)CO | 89 °C
N#C[C@@H]1CCCC[C@H]1O (relative stereo) | 46 to 49 °C
CC/C(=N\O)C1CC2(C)CCC1C2(C)C (stereo not drawn) | 92.5 °C
C=CCCCCCCCCC(=O)OCC | -38 °C
CN1CCN(CCCN2c3ccccc3Sc3ccc(Cl)cc32)CC1 | 228 °C
